Like-named read-outs stand apart in the source and are kept apart here.
Target: T1, human recombinant PDE10A (Homo sapiens, UniProt Q9Y233)
T1 construct: made in house; host or cells: SF21 insect cells (baculovirus)
Assay: Inhibition of PDE10, human recombinant PDE10A ([3H]-cAMP SPA)
Assay type: biochemical
Protocol: The gene was than inserted into a baculovirus vector, ligated with the baculovirus DNA. The enzyme-protein was expressed in SF21-cells. The enzyme was isolated from these cells by harvesting the cells by a centrifugation at 200 g to collect the cells. The cells were resuspended in 50 mM Tris-HCl/5 mM MgCl2 buffer (pH=7.4) and lysed by a sonication of the cells. The cytosolic PDE10A was obtained by a centrifugation at 48000 g for 1 h in the supernatant and stored at −70° C. PDE10 activity was determined in a one step procedure in microtiterplates. […] Nonspecific activity was tested without the enzyme. The reaction was initiated by addition of the substrate solution and was carried out at 37° C. for 30 minutes. Enzymatic activity was stopped by addition of 25 μl YSi-SPA-beads (Amersham-Pharmacia). One hour later the mixture was measured in a liquid scintillation counter for microtiterplates (Microbeta Trilux). To pipette the incubation mixture a robot Biomek (Fa. Beckman) is used. […] For determination of IC50 values the Hill-plot, 2-parameter-model, was used.

[1] = Table 7, read-out: Human PDE10 (IC50 nM)

T1 sequence (Q9Y233 1-779 isoform Q9Y233-1): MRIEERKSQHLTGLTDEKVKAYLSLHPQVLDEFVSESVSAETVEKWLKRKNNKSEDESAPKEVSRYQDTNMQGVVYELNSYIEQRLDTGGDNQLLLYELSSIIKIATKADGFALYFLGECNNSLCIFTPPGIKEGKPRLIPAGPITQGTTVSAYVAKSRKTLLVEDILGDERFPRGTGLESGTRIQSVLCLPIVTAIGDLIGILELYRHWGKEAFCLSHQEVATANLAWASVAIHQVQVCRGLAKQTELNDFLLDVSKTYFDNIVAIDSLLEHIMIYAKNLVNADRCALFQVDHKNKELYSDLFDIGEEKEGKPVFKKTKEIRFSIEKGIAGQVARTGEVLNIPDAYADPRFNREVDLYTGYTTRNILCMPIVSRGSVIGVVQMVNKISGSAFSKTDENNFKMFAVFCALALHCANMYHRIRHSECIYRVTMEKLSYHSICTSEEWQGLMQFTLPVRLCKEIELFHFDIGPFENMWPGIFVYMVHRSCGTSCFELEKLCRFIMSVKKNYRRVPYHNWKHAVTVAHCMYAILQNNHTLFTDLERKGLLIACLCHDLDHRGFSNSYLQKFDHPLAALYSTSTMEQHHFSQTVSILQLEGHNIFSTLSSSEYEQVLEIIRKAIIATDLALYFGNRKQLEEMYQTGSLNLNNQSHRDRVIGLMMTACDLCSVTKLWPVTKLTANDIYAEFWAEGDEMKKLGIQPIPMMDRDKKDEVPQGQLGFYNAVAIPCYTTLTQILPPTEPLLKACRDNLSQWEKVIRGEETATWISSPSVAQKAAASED

Compound	IC50 (Table 9, read-out: hPDE10 IC50)	IC50 [1]
COc1ccc2nc(C)c3c(C)nc(-c4ccc(C(N)=O)c(Cl)c4)n3c2n1 [Example 132, 2-chloro-4-(2-methoxy-6,7-dimethylimidazo[1,5-a]pyrido[3,2-e]pyrazin-9-yl)benzamide]	< 10 nM	
Cc1ccncc1-c1nc(C)c2c(C)nc3ccc(OCC4CC4)nc3n12 [Example 140, 2-(cyclopropylmethoxy)-6,7-dimethyl-9-(4-methylpyridin-3-yl)imidazo[1,5-a]pyrido[3,2-e]pyrazine]	10 to 100 nM	
Cc1ccc(Cl)cc1-c1nc(C)c2c(C)nc3ccc(OCC4CC4)nc3n12 [Example 134, 9-(5-chloro-2-methylphenyl)-2-(cyclopropylmethoxy)-6,7-dimethylimidazo[1,5-a]pyrido[3,2-e]pyrazine]	10 to 100 nM	
COc1ccc2nc(C)c3c(C(F)(F)F)nc(-c4cc(C(N)=O)ccc4F)n3c2n1 [Example 36, 4-Fluoro-3-[2-methoxy-6-methyl-7-(trifluoromethyl)imidazo[1,5-a]pyrido[3,2-e]pyrazin-9-yl]benzamide]		10 to 100 nM
Cc1cc(F)ccc1-c1nc(C)c2c(C)nc3ccc(OCC4CC4)nc3n12 [Example 135, 2-(cyclopropylmethoxy)-9-(4-fluoro-2-methylphenyl)-6,7-dimethylimidazo[1,5-a]pyrido[3,2-e]pyrazine]	10 to 100 nM	
COc1ccc2nc(NS(C)(=O)=O)c3c(C(F)(F)F)nc(-c4ccccc4C)n3c2n1 [Example 39, N-[2-Methoxy-9-(2-methylphenyl)-7-(trifluoromethyl)imidazo[1,5-a]pyrido[3,2-e]pyrazin-6-yl]methanesulfonamide]		< 10 nM
COc1ccc2nc(C)c3c(C(F)(F)F)nc(-c4cnccc4OC)n3c2n1 [Example 34, 2-Methoxy-9-(4-methoxypyridin-3-yl)-6-methyl-7-(trifluoromethyl)imidazo[1,5-a]pyrido[3,2-e]pyrazine]		> 100 nM

Continued, values first:

IC50 (Table 9, read-out: hPDE10 IC50)	IC50 [1]	Compound
< 10 nM		COc1cncc(-c2nc(C)c3c(C)nc4ccc(OC)nc4n23)c1 [Example 184, 2-methoxy-9-(5-methoxypyridin-3-yl)-6,7-dimethylimidazo[1,5-a]pyrido[3,2-e]pyrazine]
10 to 100 nM		Cc1ccccc1-c1nc(C)c2c(C)nc3ccc(OCC(F)(F)F)nc3n12 [Example 155]
> 100 nM		COc1ccc2nc(C#N)c3c(C)nc(-c4ccncc4)n3c2n1 [Example 170, 2-methoxy-7-methyl-9-pyridin-4-ylimidazo[1,5-a]pyrido[3,2-e]pyrazine-6-carbonitrile]
< 10 nM		COc1ccc2nc(C#N)c3c(C)nc(-c4ccc(F)c(C(N)=O)c4)n3c2n1 [Example 168, 5-(6-cyano-2-methoxy-7-methylimidazo[1,5-a]pyrido[3,2-e]pyrazin-9-yl)-2-fluorobenzamide]
< 10 nM		COc1ccc2nc(C)c3c(C)nc(-c4ccc5[nH]ccc5c4)n3c2n1 [Example 177, 9-(1H-indol-5-yl)-2-methoxy-6,7-dimethylimidazo[1,5-a]pyrido[3,2-e]pyrazine]
< 10 nM		Cc1nc(-c2cc(C(N)=O)ccc2F)n2c1c(C)nc1ccc(OCC3CC3)nc12 [Example 151, 3-[2-(cyclopropylmethoxy)-6,7-dimethylimidazo[1,5-a]pyrido[3,2-e]pyrazin-9-yl]-4-fluorobenzamide]
10 to 100 nM		COc1ccc2nc(C)c3c(C)nc(-c4ccncc4OC)n3c2n1 [Example 161, 2-Methoxy-9-(3-methoxypyridin-4-yl)-6,7-dimethylimidazo[1,5-a]pyrido[3,2-e]pyrazine]
10 to 100 nM		COc1ccc2nc(C)c3c(C)nc(-c4cnn(C)c4)n3c2n1 [Example 180, 2-methoxy-6,7-dimethyl-9-(1-methyl-1H-pyrazol-4-yl)imidazo[1,5-a]pyrido[3,2-e]pyrazine]
> 100 nM		Cc1cc(C(=O)O)ccc1-c1nc(C)c2c(C)nc3ccc(OCC4CC4)nc3n12 [Example 147, 4-[2-(cyclopropylmethoxy)-6,7-dimethylimidazo[1,5-a]pyrido[3,2-e]pyrazin-9-yl]-3-methylbenzoic acid]

Reference: patent US20090143361A1, “Pyrido[3,2-E]Pyrazines, Process For Preparing The Same, And Their Use As Inhibitors Of Phosphodiesterase 10” (ELBION GMBH, priority 2007, published 2009)
